This passage reports IC50 results from patent publication US10851064B2, “ACSS2 inhibitors and methods of use thereof” (METABOMED LTD., priority 2017, dated 2020).

Structures are written as SMILES.

The test addresses ACSS2 (Homo sapiens, UniProt Q9NR19). Briefly: biochemical.
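Also: Cell-free human ACSS2 enzyme reaction with acetate, CoA and ATP, 90 min at 37 C, coupled to pyrophosphatase, phosphate release detected by Biomol Green absorbance at 620 nm.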

ACSS2, sequence (Q9NR19 whole entry): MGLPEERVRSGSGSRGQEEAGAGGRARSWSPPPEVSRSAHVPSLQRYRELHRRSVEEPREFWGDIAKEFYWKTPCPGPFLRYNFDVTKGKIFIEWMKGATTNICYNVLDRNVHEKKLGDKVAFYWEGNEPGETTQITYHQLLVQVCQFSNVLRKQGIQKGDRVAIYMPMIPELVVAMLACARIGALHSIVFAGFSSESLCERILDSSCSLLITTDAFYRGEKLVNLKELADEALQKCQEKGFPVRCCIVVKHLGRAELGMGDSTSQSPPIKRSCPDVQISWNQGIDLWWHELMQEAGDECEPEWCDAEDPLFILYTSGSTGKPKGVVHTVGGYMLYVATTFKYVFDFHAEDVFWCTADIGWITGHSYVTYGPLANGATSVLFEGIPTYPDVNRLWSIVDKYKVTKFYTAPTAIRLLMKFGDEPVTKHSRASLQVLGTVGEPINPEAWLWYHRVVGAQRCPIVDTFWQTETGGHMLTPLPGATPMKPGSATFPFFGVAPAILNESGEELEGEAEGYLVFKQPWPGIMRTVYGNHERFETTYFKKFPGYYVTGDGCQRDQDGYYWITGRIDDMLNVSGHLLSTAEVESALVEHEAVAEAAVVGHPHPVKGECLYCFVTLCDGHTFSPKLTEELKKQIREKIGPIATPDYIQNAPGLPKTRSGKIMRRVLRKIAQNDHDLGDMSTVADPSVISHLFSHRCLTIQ

What is called IC50 is the concentration at which inhibition is half-maximal. Low readings indicate greater potency in that assay, high ones weaker potency in that assay. Regarding `CCc1cscc1NC(=O)C1C(=O)N(c2ccccc2)N=C1C` (stereo not shown) [compound 290], the concentration for half-maximal inhibition (IC50) lay in the range of 100 to 1000 nM.
In turn, `CCC(F)(F)c1cccc(NC(=O)C2C(=O)N(c3ccc(OC(F)F)c(-c4ccccn4)c3)N=C2C)c1` (stereo not shown) [compound 377] registered a half-maximal inhibitory concentration (IC50) of 0.01 to 6 nM.
Take `CCc1cccc(NC(=O)C2C(=O)N(c3ccc4cccnc4c3)N=C2C)c1` (stereo not shown) [compound 267]: the half-inhibitory concentration (IC50) was in the range of 6 to 100 nM.
The value for `CC1=NN(c2cccc(C#CCNC(=O)COCCOCCOCCOCC(=O)Nc3ccc4c(c3)C(=O)N(C3CCC(=O)NC3=O)C4=O)c2)C(=O)C1C(=O)Nc1cccc(C(C)(F)F)c1` (stereo not shown) [compound 379] was 0.01 to 6 nM; that for `CC1=NN(c2ccc(C(F)(F)F)cc2)C(=O)C1C(=O)Nc1ccccc1` (stereo not shown) [compound 201, 3-methyl-5-oxo-N-phenyl-1-(4-(trifluoromethyl)phenyl)-4,5-dihydro-1H-pyrazole-4-carboxamide] was 1000 to 100000 nM.
The compound `CC1=NN(c2ccc(C(F)(F)F)cc2)C(=O)C1C(=O)Nc1cccc(-c2ncc[nH]2)c1` (stereo not shown) [compound 148, N-(3-(1H-imidazol-2-yl)phenyl)-3-methyl-5-oxo-1-(4-(trifluoromethyl)phenyl)-4,5-dihydro-1H-pyrazole-4-carboxamide] came in with an IC50 of 6 to 100 nM.
`CC1=NN(c2cc(Cc3ccc(Cl)cc3)cc(-c3ccccc3)c2)C(=O)C1C(=O)Nc1cccc(C(C)(F)F)c1` (stereo not shown) [compound 376] came in with an IC50 of 6 to 100 nM.
The value for `COc1ccc(N2N=C(C)C(C(=O)Nc3ccccc3)C2=O)cc1` (stereo not shown) [compound 197, 1-(4-methoxyphenyl)-3-methyl-5-oxo-N-phenyl-4,5-dihydro-1H-pyrazole-4-carboxamide] was 1000 to 100000 nM; that for `CC1=NN(c2ccc(OC(F)F)cc2)C(=O)C1C(=O)N(C)c1cccc(Cl)c1` (stereo not shown) [compound 395] was 100 to 1000 nM.
Next, `CC1=NN(c2ccccc2)C(=O)C1C(=O)Nc1cccc2ccccc12` (stereo not shown) [compound 185, 3-methyl-N-(naphthalen-1-yl)-5-oxo-1-phenyl-4,5-dihydro-1H-pyrazole-4-carboxamide]: 1000 to 100000 nM; `CC1=NN(c2ccc(OC(F)F)cc2)C(=O)C1C(=O)Nc1cc(C(C)(F)F)cc2ccoc12` (stereo not shown) [compound 403]: 6 to 100 nM.
The value for `CC1=NN(c2ccc3[nH]cnc3c2)C(=O)C1C(=O)Nc1cccc(C(C)(F)F)c1` (stereo not shown) [compound 405] was 6 to 100 nM.
Compound `CCc1csc(NC(=O)C2C(=O)N(c3ccccc3)N=C2C)c1` (stereo not shown) [compound 285] gave an IC50 of 100 to 1000 nM.
Turning to `CNC(=O)C1C(=O)N(c2ccccc2)N=C1C` (stereo not shown) [compound 199, N,3-dimethyl-5-oxo-1-phenyl-4,5-dihydro-1H-pyrazole-4-carboxamide], the concentration for half-maximal inhibition (IC50) is greater than 100000 nM.
The compound `CC1=NN(c2ccccc2)C(=O)C1C(=O)Nc1cccc(C(C)(C)C)c1` (stereo not shown) [compound 115, N-(3-(tert-butyl)phenyl)-3-methyl-5-oxo-1-phenyl-4,5-dihydro-1H-pyrazole-4-carboxamide] showed a half-maximal inhibitory concentration (IC50) of 100 to 1000 nM.
The value for `CCc1cccc(NC(=O)C2C(=O)N(c3ccccc3)N=C2C(C)C)c1` (stereo not shown) [compound 128, N-(3-ethylphenyl)-3-isopropyl-5-oxo-1-phenyl-4,5-dihydro-1H-pyrazole-4-carboxamide] was 1000 to 100000 nM; that for `CC1=NN(c2ccccc2)C(=O)C1C(=O)Nc1cccc(CN)c1` (stereo not shown) [compound 223, N-(3-(aminomethyl)phenyl)-3-methyl-5-oxo-1-phenyl-4,5-dihydro-1H-pyrazole-4-carboxamide] was 1000 to 100000 nM.
In turn, `COc1cc(Cl)cc(N(C)C(=O)C2C(=O)N(c3ccc(OC(F)F)cc3)N=C2C)c1` (stereo not shown) [compound 392] came in with a concentration for half-maximal inhibition (IC50) of 100 to 1000 nM.
Next, `CC1=NN(c2ccc(OC3CCCCC3)cc2)C(=O)C1C(=O)Nc1cccc(C(C)(F)F)c1` (stereo not shown) [compound 443]: 0.01 to 6 nM; `CC1=NN(c2cccc(C#CCN)c2)C(=O)C1C(=O)Nc1cccc(C(C)(F)F)c1` (stereo not shown) [compound 356]: 6 to 100 nM; `CC1=NN(c2ccc(OC(C)(C)C)cc2)C(=O)C1C(=O)Nc1cccc(C(C)(F)F)c1` (stereo not shown) [compound 441]: 0.01 to 6 nM.
`CCC1=NN(c2ccccc2)C(=O)C1C(=O)Nc1cccc(CC)c1` (stereo not shown) [compound 136, 3-ethyl-N-(3-ethylphenyl)-5-oxo-1-phenyl-4,5-dihydro-1H-pyrazole-4-carboxamide] registered a 50% inhibitory concentration (IC50) of 1000 to 100000 nM.
The value for `CC1=NN(c2ccc(OC(F)F)c(-c3ccccc3)c2)C(=O)C1C(=O)Nc1cccc(C(C)(F)F)c1` (stereo not shown) [compound 453] was 0.01 to 6 nM; that for `CC1=NN(c2ccccc2)C(=O)C1C(=O)Nc1cccc(-c2cccs2)c1` (stereo not shown) [compound 101, 3-methyl-5-oxo-1-phenyl-N-(3-(thiophen-2-yl)phenyl)-4,5-dihydro-1H-pyrazole-4-carboxamide] was 6 to 100 nM.
Compound `CC1=NN(c2cc(Cc3ccccc3)cc(-c3ccccc3)c2)C(=O)C1C(=O)Nc1cccc(C(C)(F)F)c1` (stereo not shown) [compound 387] came in with an IC50 of 0.01 to 6 nM.
As to `COc1ccc(N2N=C(C)C(C(=O)Nc3cccc(C4COC4)c3)C2=O)cc1` (stereo not shown) [compound 354], the IC50 fell in the range of 6 to 100 nM.
Next, `CC1=NN(c2cc(Br)cc(-c3ccccc3)c2)C(=O)C1C(=O)Nc1cccc(C(C)(F)F)c1` (stereo not shown) [compound 389]: 0.01 to 6 nM.
On to `CC(=O)NS(=O)(=O)c1cc(N2N=C(C)C(C(=O)Nc3cccc(C(C)(F)F)c3)C2=O)ccc1OC(F)(F)F` (stereo not shown) [compound 294], for which the half-maximal inhibitory concentration (IC50) fell in the range of 6 to 100 nM.
Consider `CC1=NN(c2cc(-c3ccccc3)cc(-c3ccccc3)c2)C(=O)C1C(=O)Nc1cccc(C(C)(F)F)c1` (stereo not shown) [compound 401], for which the IC50 was in the range of 6 to 100 nM.
On to `COc1ccc(N2N=C(C)C(C(=O)Nc3cccc(C(C)(F)F)c3)C2=O)cc1-c1cc[n+]([O-])cc1` (stereo not shown) [compound 345], for which the concentration for half-maximal inhibition (IC50) lay in the range of 100 to 1000 nM.
In the case of `CC1=NN(c2cccc(C#CCNC(=O)COCCOCC(=O)Nc3cccc4c3C(=O)N(C3CCC(=O)NC3=O)C4=O)c2)C(=O)C1C(=O)Nc1cccc(C(C)(F)F)c1` (stereo not shown) [compound 381], the half-inhibitory concentration (IC50) is 0.01 to 6 nM.
Next, `COc1ccc(N2N=C(C)C(C(=O)Nc3cccc(C(C)(F)F)c3)C2=O)cc1-c1cnccn1` (stereo not shown) [compound 433]: 0.01 to 6 nM.
The value for `CC(=O)c1ccc(NC(=O)C2C(=O)N(c3ccccc3)N=C2C)cc1` (stereo not shown) [compound 203, N-(4-acetylphenyl)-3-methyl-5-oxo-1-phenyl-4,5-dihydro-1H-pyrazole-4-carboxamide] was 1000 to 100000 nM; that for `CCC(C)Oc1ccc(N2N=C(C)C(C(=O)Nc3cccc(C(C)(F)F)c3)C2=O)cc1` (stereo not shown) [compound 444] was 0.01 to 6 nM; that for `CC1=NN(c2ccccc2)C(=O)C1C(=O)Nc1ccc(S(=O)(=O)N(C)C)cc1` (stereo not shown) [compound 105, N-(4-(N,N-dimethylsulfamoyl)phenyl)-3-methyl-5-oxo-1-phenyl-4,5-dihydro-1H-pyrazole-4-carboxamide] was 1000 to 100000 nM.
For the compound `CCC(F)(F)c1cccc(NC(=O)C2C(=O)N(c3ccc(OC(F)F)c(-c4nnc(C)[nH]4)c3)N=C2C)c1` (stereo not shown) [compound 370], the concentration for half-maximal inhibition (IC50) fell in the range of 0.01 to 6 nM.
In the case of `CC1=NN(C2CCS(=O)(=O)C2)C(=O)C1C(=O)Nc1ccccc1` (stereo not shown) [compound 202, 1-(1,1-dioxidotetrahydrothiophen-3-yl)-3-methyl-5-oxo-N-phenyl-4,5-dihydro-1H-pyrazole-4-carboxamide], the IC50 was greater than 100000 nM.
Take `COc1ccc(NC(=O)C2C(=O)N(c3ccccc3)N=C2C)cc1` (stereo not shown) [compound 188, N-(4-methoxyphenyl)-3-methyl-5-oxo-1-phenyl-4,5-dihydro-1H-pyrazole-4-carboxamide]: the half-inhibitory concentration (IC50) lay in the range of 1000 to 100000 nM.
For `CCOc1ccc(N2N=C(C)C(C(=O)Nc3cccc(CC)c3)C2=O)cc1` (stereo not shown) [compound 134, 1-(4-ethoxyphenyl)-N-(3-ethylphenyl)-3-methyl-5-oxo-4,5-dihydro-1H-pyrazole-4-carboxamide], the concentration for half-maximal inhibition (IC50) was in the range of 1000 to 100000 nM.
In the case of `CCc1cccc(NC(=O)C2C(=O)N(c3ccccc3)N=C2c2ccccc2)c1` (stereo not shown) [compound 126, N-(3-ethylphenyl)-5-oxo-1,3-diphenyl-4,5-dihydro-1H-pyrazole-4-carboxamide], the IC50 lay in the range of 1000 to 100000 nM.
Consider `CC1=NN(c2ccccc2)C(=O)C1C(=O)Nc1ccc2[nH]cnc2c1` (stereo not shown) [compound 278], for which the half-inhibitory concentration (IC50) is 1000 to 100000 nM.
Next, `CCc1cccc(NC(=O)c2c(C)nn(-c3ccc(NC)cc3)c2OC(=O)N(C)C)c1` [compound 224, 4-((3-ethylphenyl)carbamoyl)-3-methyl-1-(4-(methylamino)phenyl)-1H-pyrazol-5-yl dimethylcarbamate]: 1000 to 100000 nM; `CC1=NN(c2ccc3ccccc3c2)C(=O)C1C(=O)Nc1ccccc1` (stereo not shown) [compound 198, 5-hydroxy-3-methyl-1-(naphthalen-2-yl)-N-phenyl-1H-pyrazole-4-carboxamide]: 1000 to 100000 nM.
The value for `CCC(F)(F)c1cccc(NC(=O)C2C(=O)N(c3ccc4cc[nH]c4c3)N=C2C)c1` (stereo not shown) [compound 369] was 0.01 to 6 nM; that for `CCNC(c1cccc(NC(=O)C2C(=O)N(c3ccccc3)N=C2C)c1)C(F)(F)F` (stereo not shown) [compound 176] was 1000 to 100000 nM; that for `CC1=NN(c2ccccc2)C(=O)C1C(=O)Nc1cccc(S(=O)(=O)N(C)C)c1` (stereo not shown) [compound 139, N-(3-(N,N-dimethylsulfamoyl)phenyl)-3-methyl-5-oxo-1-phenyl-4,5-dihydro-1H-pyrazole-4-carboxamide] was 100 to 1000 nM.
Next, `CC(=O)NS(=O)(=O)c1cccc(N2N=C(C)C(C(=O)Nc3cccc(C(C)(F)F)c3)C2=O)c1` (stereo not shown) [compound 293]: 6 to 100 nM; `CC(=O)c1cccc(NC(=O)C2C(=O)N(c3cccc(C(=O)O)c3)N=C2C)c1` (stereo not shown) [compound 123, 3-(4-((3-acetylphenyl)carbamoyl)-3-methyl-5-oxo-4,5-dihydro-1H-pyrazol-1-yl)benzoic acid]: 100 to 1000 nM.
`CC1=NN(c2ccccc2)C(=O)C1C(=O)NC(C)C` (stereo not shown) [compound 200, N-isopropyl-3-methyl-5-oxo-1-phenyl-4,5-dihydro-1H-pyrazole-4-carboxamide] displayed an IC50 greater than 100000 nM.
Consider `COc1ccc(N2N=C(C)C(C(=O)Nc3cccc(C(C)(F)F)c3)C2=O)cc1-c1cccnc1` (stereo not shown) [compound 445], for which the IC50 was in the range of 0.01 to 6 nM.
The compound `CC1=NN(c2ccccc2)C(=O)C1C(=O)Nc1nccn1C` (stereo not shown) [compound 268] displayed an IC50 of 1000 to 100000 nM.
In turn, `CC1=NN(c2ccc(OC(F)(F)F)cc2)C(=O)C1C(=O)Nc1csc(C(C)(F)F)c1` (stereo not shown) [compound 295] came in with a half-inhibitory concentration (IC50) of 6 to 100 nM.
